Test results: patent US20120165330A1, “QUINAZOLINONE AND RELATED ANALOGS AS SIRTUIN MODULATORS” (Sirtris Pharmaceuticals, Inc., priority 2010, published 2012)
Read-outs that look alike come from different tables or passages of the source.

How the values were obtained:
[1] = target: T1, SIRT2 (Homo sapiens, UniProt Q8IXJ6); assay: mass spectrometry based assay to identify modulators of SIRT2 inhibition; type: biochemical
T1 sequence (Q8IXJ6 1-389): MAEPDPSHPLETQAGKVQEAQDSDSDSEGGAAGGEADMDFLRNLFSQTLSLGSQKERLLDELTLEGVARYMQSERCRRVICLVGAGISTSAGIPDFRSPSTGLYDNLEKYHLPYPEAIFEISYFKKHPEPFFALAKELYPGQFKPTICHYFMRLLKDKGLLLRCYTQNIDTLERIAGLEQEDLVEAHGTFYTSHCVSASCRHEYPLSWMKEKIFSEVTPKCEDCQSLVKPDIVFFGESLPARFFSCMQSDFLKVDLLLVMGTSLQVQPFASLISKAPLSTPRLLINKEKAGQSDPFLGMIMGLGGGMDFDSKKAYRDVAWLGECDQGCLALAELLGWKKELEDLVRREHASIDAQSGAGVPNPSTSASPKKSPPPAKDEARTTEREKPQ
Excerpt: (§1) A mass spectrometry based assay was used to identify modulators of SIRT2 inhibition. […] The peptide is labeled with the fluorophore 5TMR (excitation 540 nm/emission 580 nm) at the C-terminus. The sequence of the peptide substrate is based on p53 with several modifications. In addition, the methionine residue naturally present in the sequence was replaced with the norleucine because the methionine may be susceptible to oxidation during synthesis and purification.
(§2) Test compounds may be added to the reaction as described above. The SirT2 gene is cloned into a T7-promoter containing vector and transformed into BL21(DE3). After the 30 minute incubation with SIRT2, 10 μL of 10% formic acid is added to stop the reaction. Reactions are sealed and frozen for later mass spec analysis. Determination of the mass of the substrate peptide allows for precise determination of the degree of acetylation (i.e. starting material) as compared to deacetylated peptide (product).
(§3) This timepoint is the same as that used for test compounds and, within the linear range, the endpoint represents a change in velocity.
For the above assay, SIRT2 protein was expressed and purified as follows. The SirT2 gene was cloned into a T7-promoter containing vector and transformed into BL21(DE3) with chaperone plasmid. The protein was expressed by induction with 0.3 mM IPTG as an N-terminal His-tag fusion protein at 18° C. overnight and harvested at 30,000×g. Cells were lysed with sonication in lysis buffer (50 mM Tris-HCl, 10% glycerol, 300 mM NaCl, pH 7.8) for 10 min. The protein was purified over a Ni-NTA column (GE Healthcare) and eluted with lysis buffer containing 100 to 250 mM imidazole. Fractions containing target protein were pooled and TEV protease (Invitrogen) was added to the protein and incubated at 4° C. overnight in lysis buffer to remove the N-terminal His tag. The treated sample was added back on Ni-NTA column. Target protein was obtained by eluting with lysis buffer with 5 mM imidazole and loaded onto the Q-Sepharose F.F. column. The flow-through fraction of Q-Sepharose F.F. column was then directly re-adsorbed on the SP-Sepharose F.F. column and eluted with 20 mM Tris-HCl, 100 mM NaCl, pH 7.8. The protein was concentrated with 50 ml Amicon Ultra centrifugal-filter device (Millipore), then loaded on S-200 gel filtration column and eluted with 20 mM Tris-HCl, 200 mM NaCl, pH 8.0. The protein was aliquoted and frozen at −80° C. until further use.

[2] = target: T2, SIRT1 (Homo sapiens, UniProt Q96EB6); assay: mass spectrometry based assay to identify modulators of SIRT1 activity; type: biochemical; details: for Emax: 25 min, percent maximum fold activation of SIRT1, read-out: SIRT1 % FOLD ACT.; for EC1.5 (concentration for 1.5-fold activation): concentration for 1.5-fold activation of SIRT1 deacetylase, 0.5 μM peptide substrate, 120 μM βNAD+, 10 nM SIRT1, 25 min at 25° C.
T2 sequence (Q96EB6 1-747): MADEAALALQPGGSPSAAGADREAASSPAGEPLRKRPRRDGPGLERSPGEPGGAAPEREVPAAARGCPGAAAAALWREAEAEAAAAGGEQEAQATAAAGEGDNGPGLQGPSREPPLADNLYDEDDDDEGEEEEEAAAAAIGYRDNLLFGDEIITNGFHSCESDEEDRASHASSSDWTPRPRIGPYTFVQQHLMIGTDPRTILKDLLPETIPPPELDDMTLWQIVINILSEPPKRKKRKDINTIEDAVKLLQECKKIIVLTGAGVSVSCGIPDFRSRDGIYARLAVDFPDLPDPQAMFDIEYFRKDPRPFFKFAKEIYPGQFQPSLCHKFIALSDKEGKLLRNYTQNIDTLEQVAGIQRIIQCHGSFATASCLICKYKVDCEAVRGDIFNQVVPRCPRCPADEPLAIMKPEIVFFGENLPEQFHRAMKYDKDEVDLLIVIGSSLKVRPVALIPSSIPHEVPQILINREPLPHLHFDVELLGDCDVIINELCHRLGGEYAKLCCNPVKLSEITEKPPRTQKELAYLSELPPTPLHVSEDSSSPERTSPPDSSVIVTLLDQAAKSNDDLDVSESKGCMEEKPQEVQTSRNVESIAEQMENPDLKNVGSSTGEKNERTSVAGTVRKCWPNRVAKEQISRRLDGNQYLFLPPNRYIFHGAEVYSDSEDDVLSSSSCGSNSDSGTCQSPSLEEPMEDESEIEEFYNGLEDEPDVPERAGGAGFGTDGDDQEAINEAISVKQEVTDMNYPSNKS
Excerpt: as §1, with “SIRT1 activity.” for “SIRT2 inhibition.”
as §2, with “SirT1” for “SirT2”, “25” for “30”, “SIRT1,” for “SIRT2,”
as §3
For the above assay, SIRT1 protein was expressed and purified as follows. The SirT1 gene was cloned into a T7-promoter containing vector and transformed into BL21(DE3). The protein was expressed by induction with 1 mM IPTG as an N-terminal His-tag fusion protein at 18° C. overnight and harvested at 30,000×g. Cells were lysed with lysozyme in lysis buffer (50 mM Tris-HCl, 2 mM Tris[2-carboxyethyl]phosphine (TCEP), 10 μM ZnCl2, 200 mM NaCl) and further treated with sonication for 10 min for complete lysis. The protein was purified over a Ni-NTA column (Amersham) and fractions containing pure protein were pooled, concentrated and run over a sizing column ([…]). The peak containing soluble protein was collected and run on an Ion-exchange column (MonoQ). Gradient elution (200 mM-500 mM NaCl) yielded pure protein. This protein was concentrated and dialyzed against dialysis buffer (20 mM Tris-HCl, 2 mM TCEP) overnight. The protein was aliquoted and frozen at −80° C. until further use.

[3] = 2.68 μM peptide substrate, 135 μM βNAD+, 50 nM SIRT2, 30 min at room temperature, read-out: SIRT2 IC50 UM

Structure (SMILES) | IC50 [1, 3] | Emax [2] | EC1.5 (concentration for 1.5-fold activation) ([2]; read-out: SIRT1 EC1.5 UM) | EC1.5 (concentration for 1.5-fold activation) ([2]; read-out: SIRT1 EC1.5 µM) | IC50 [1]
Cc1nc2cccc(NC(=O)c3cscn3)c2c(=O)n1-c1cccc(C(F)(F)F)c1 [Compound 1, N-(2-methyl-4-oxo-3-(3-(trifluoromethyl)phenyl)-3,4-dihydroquinazolin-5-yl)thiazole-4-carboxamide] | < 10 µM |  |  |  | 
Cc1nc2cccc(NC(=O)c3cnccn3)c2c(=O)n1-c1cccc(OC(F)(F)F)c1 [Compound 4, N-(2-methyl-4-oxo-3-(3-(trifluoromethoxy)phenyl)-3,4-dihydroquinazolin-5-yl)pyrazine-2-carboxamide] | 10 to 50 µM | > 150% | < 50 µM |  | 
Cc1nc2cccc(NC(=O)c3cccc(OCC(O)CO)n3)c2c(=O)n1-c1cccc(OC(F)(F)F)c1 (stereo not drawn) [Compound 9, 6-(2,3-dihydroxypropoxy)-N-(2-methyl-4-oxo-3-(3-(trifluoromethoxy)phenyl)-3,4-dihydroquinazolin-5-yl)picolinamide] |  | > 150% | < 50 µM |  | 
Cc1nc2cccc(NC(=O)Cc3cccnc3)c2c(=O)n1-c1cccc(OC(F)(F)F)c1 [Compound 5, N-(2-methyl-4-oxo-3-(3-(trifluoromethoxy)phenyl)-3,4-dihydroquinazolin-5-yl)-2-(pyridin-3-yl)acetamide] | 10 to 50 µM | < 150% | > 50 µM |  | 
Cc1nc2cccc(NC(=O)c3cccc(CN4CCOCC4)n3)c2c(=O)n1-c1cccc(C(F)(F)F)c1 [Compound 7, N-(2-methyl-4-oxo-3-(3-(trifluoromethyl)phenyl)-3,4-dihydroquinazolin-5-yl)-6-(morpholinomethyl)picolinamide] |  | > 150% | < 50 µM |  | 
Cc1nc2cccc(NC(=O)c3cnccn3)c2c(=O)n1-c1cccc(C(F)(F)F)c1 [Compound 2, N-(2-methyl-4-oxo-3-(3-(trifluoromethyl)phenyl)-3,4-dihydroquinazolin-5-yl)pyrazine-2-carboxamide] |  | > 150% |  | < 50 µM | 10 to 50 µM
Cc1nc2cccc(NC(=O)c3cccc(OCC(O)CO)n3)c2c(=O)n1-c1cccc(C(F)(F)F)c1 (stereo not drawn) [Compound 6, 6-(2,3-dihydroxypropoxy)-N-(2-methyl-4-oxo-3-(3-(trifluoromethyl)phenyl)-3,4-dihydroquinazolin-5-yl)picolinamide] |  | > 150% |  | < 50 µM | 
Cc1nc2cccc(NC(=O)c3cscn3)c2c(=O)n1-c1cccc(C(F)(F)F)c1 [Compound 8, N-(2-methyl-4-oxo-3-(3-(trifluoromethyl)phenyl)-3,4-dihydroquinazolin-5-yl)thiazole-4-carboxamide] |  | > 150% | < 50 µM |  | 
Cc1nc2cccc(NC(=O)c3cscn3)c2c(=O)n1-c1cccc(OC(F)(F)F)c1 [Compound 3, N-(2-methyl-4-oxo-3-(3-(trifluoromethoxy)phenyl)-3,4-dihydroquinazolin-5-yl)thiazole-4-carboxamide] | < 10 µM | < 150% | > 50 µM |  | 
